Measurements: patent US9745295B2, “Thiazole-substituted aminoheteroaryls as spleen tyrosine kinase inhibitors” (Merck Sharp & Dohme Corp., priority 2013, dated 2017)

target: T1, recombinant human GST-SYK (Homo sapiens, UniProt P43405); assay: Homogeneous Time-Resolved Fluorescence (HTRF) assay for the recombinant human Syk enzyme; format: biochemical; conditions: recombinant human GST-SYK 5 pM, ATP 25 μM, read-out: rhSYK IC50
T1 construct: purchased Carna Biosciences 08-176
Method: Homogeneous Time-Resolved Fluorescence (HTRF) Assay for the Recombinant Human Syk Enzyme
A recombinant GST-hSYK fusion protein was used to measure potency of compounds to inhibit human Syk activity. The recombinant human GST-SYK (Carna Biosciences #08-176) (5 pM final concentration) was incubated with various concentrations of the inhibitor diluted in DMSO (0.1% final concentration) for 10 minutes at room temperature in 15 mM Tris-HCl (pH 7.5), 0.01% tween 20, 2 mM DTT in 384 well plate format. To initiate the reaction the biotinylated substrate peptide (250 nM final concentration) that contains the phosphorylation site for Syk was added with magnesium (5 mM final concentration) and ATP (25 μM final concentration). Final volume of the reaction was 10 μL. Phosphorylation of the peptide was allowed to proceed for 45′ at room temperature. To quench the reaction and detect the phosphorylated product, 2 nM of a Europium-anti-phosphotyrosine antibody (Perkin Elmer #AD0161) and 70 nM SA-APC (Perkin-Elmer #CR130-100) were added together in 15 mM Tris pH 7.5, 40 mM EDTA, 0.01% tween 20. Final volume of the quenching solution was 10 μL.
The resulting HTRF signal was measured after 30 minutes on an EnVision (Perkin-Elmer) reader using a time-resolved fluorescence protocol. Table A below lists activities as IC50 values (nM) for representative compounds of the invention.

**Q.** With Cc1cc(Nc2ncc(F)c(C)n2)cc(-c2cnc(C(C)(O)[C@H]3CC[C@H](C(=O)O)CC3)s2)n1 (single isomer, unassigned) [Example 4.20, (trans)-4-((R or S)-1-(5-{4-[(5-fluoro-4-methylpyrimidin-2-yl)amino]-6-methylpyridin-2-yl}-1,3-thiazol-2-yl)-1-hydroxyethyl]cyclo-hexanecarboxylic acid] as the molecule, how does the IC50 read?
**A.** Its IC50 is 4.4 nM.

**Q.** How did the IC50 turn out when Cc1cc(Nc2cc(C)ccn2)cc(-c2cnc(C(C)(O)C3CCC(C(=O)O)CC3)s2)c1 (single isomer, unassigned) [Example 4.15, (trans)-4-((R or S)-[1-hydroxy-1-(5-{3-methyl-5-[(4-methylpyridin-2-yl)amino]phenyl}-1,3-thiazol-2-yl)ethyl]cyclohexanecarboxylic acid] was run?
**A.** Its IC50 is 29.3 nM.

**Q.** Which IC50 does the source give for Cc1cc(Nc2cc(C(F)(F)F)ncn2)nc(-c2cnc(C3(O)CCC(C(=O)O)C(C)(C)C3)s2)c1 (single isomer, unassigned) [Example 1.7, (1S,4R or 1R,4S)-4-hydroxy-2,2-dimethyl-4-[5-(4-methyl-6-{[6-(trifluoromethyl)pyrimidin-4-yl]amino}pyridin-2-yl)-1,3-thiazol-2-yl] cyclohexane-carboxylic acid] here?
**A.** Its IC50 is 2.62 nM.

**Q.** Which IC50 does the source give for COc1ccnc(Nc2cc(C)nc(-c3cnc(C(C)(O)[C@H]4CC[C@H](C(=O)O)CC4)s3)c2)n1 (single isomer, unassigned) [Example 4.9, (trans)-4-((R or S)-1-hydroxy-1-(5-{4-[(4-methoxypyrimidin-2-yl)amino]-6-methylpyridin-2-yl}-1,3-thiazol-2-yl)ethyl]cyclohexane carboxylic acid] here?
**A.** Its IC50 is 0.594 nM.

**Q.** CC(O)(c1ncc(-c2cc(Nc3nccc(C(F)(F)F)n3)cc(Cl)n2)s1)[C@H]1CC[C@H](C(=O)O)CC1 (single isomer, unassigned) [Example 4.23, (trans)-4-((R or S)-1-[5-(6-chloro-4-{[4-(trifluoromethyl)pyrimidin-2-yl]amino}pyridin-2-yl)-1,3-thiazol-2-yl]-1-hydroxyethyl} cyclohexanecarboxylic acid] was tested. Which IC50 did it give?
**A.** The IC50 was 5.2 nM.

**Q.** With Cc1cc(Nc2cc(C(F)(F)F)ncn2)nc(-c2cnc(C3(O)CCC(C(=O)O)C(C)(C)C3)s2)c1 (single isomer, unassigned) [Example 1.6, (1S,4R or 1R,4S)-4-hydroxy-2,2-dimethyl-4-[5-(4-methyl-6-{[6-(trifluoromethyl)pyrimidin-4-yl]amino}pyridin-2-yl)-1,3-thiazol-2-yl] cyclohexane-carboxylic acid] as the molecule, how does the IC50 read?
**A.** Its IC50 is 0.441 nM.

**Q.** For Cc1cc(Nc2ncnc(C)n2)cc(-c2cnc([C@@]3(O)CC[C@H](C(=O)O)C(C)(C)C3)s2)c1 [Example 2.2, (1S,4R)-4-hydroxy-2,2-dimethyl-4-(5-{3-methyl-5-[(4-methyl-1,3,5-triazin-2-yl)amino]phenyl}-1,3-thiazol-2-yl)cyclohexanecarboxylic acid], which IC50 is on record?
**A.** The IC50 was 52.3 nM.

**Q.** How did the IC50 turn out when Cc1cc(Nc2nccc(C(F)(F)F)n2)cc(-c2cnc(C3(O)CCC(C(=O)O)C(C)(C)C3)s2)n1 (single isomer, unassigned) [Example 1.9, (1S,4R or 1R,4S)-4-hydroxy-2,2-dimethyl-4-[5-(6-methyl-4-{[4-(trifluoromethyl)pyrimidin-2-yl]amino}pyridin-2-yl)-1,3-thiazol-2-yl] cyclohexane-carboxylic acid] was run?
**A.** The IC50 was 2.1 nM.

**Q.** With COc1cc(Nc2cc(C)cc(-c3cnc(C4(O)CCC(C(=O)O)C(C)(C)C4)s3)n2)ncn1 (single isomer, unassigned) [Example 3.4, (1S,4R or 1R,4S)-4-hydroxy-4-(5-{6-[(6-methoxypyrimidin-4-yl)amino]-4-methylpyridin-2-yl}-1,3-thiazol-2-yl)-2,2-dimethylcyclohexane-carboxylic acid] as the molecule, how does the IC50 read?
**A.** The IC50 was 2.32 nM.

**Q.** Which IC50 does the source give for Cc1cc(-c2cnc(C3(O)CCC3)s2)nc(Nc2cc(C(F)(F)F)ccn2)n1 [Example 4.4, 1-[5-(6-methyl-2-{[4-(trifluoromethyl)pyridin-2-yl]amino}pyrimidin-4-yl)-1,3-thiazol-2-yl]cyclobutanol] here?
**A.** Its IC50 is 43.4 nM.

**Q.** Which IC50 does the source give for Cc1cc(Nc2cccc(C(F)(F)F)n2)cc(-c2cnc(C3(O)CCC(C(=O)O)C(C)(C)C3)s2)c1 (single isomer, unassigned) [Example 2.5, (1S,4R or 1R,4S)-4-hydroxy-2,2-dimethyl-4-[5-(3-methyl-5-{[6-(trifluoromethyl)pyridin-2-yl]amino}phenyl)-1,3-thiazol-2-yl]cyclohexane-carboxylic acid] here?
**A.** Its IC50 is 2820 nM.

**Q.** For OC1(c2ncc(-c3cccc(Nc4cnccn4)n3)s2)CCC1 [Example 4.2, 1-{5-[6-(pyrazin-2-ylamino)pyridin-2-yl]-1,3-thiazol-2-yl}cyclobutanol], which IC50 is on record?
**A.** Its IC50 is 35.2 nM.

**Q.** Which IC50 does the source give for COc1cc(Nc2nccc(C)n2)cc(-c2cnc(C(C)(O)[C@H]3CC[C@H](C(=O)O)CC3)s2)n1 (single isomer, unassigned) [Example 4.22, (trans)-4-((R or S)-1-hydroxy-1-(5-{6-methoxy-4-[(4-methylpyrimidin-2-yl)amino]pyridin-2-yl}-1,3-thiazol-2-yl)ethyl]cyclohexane carboxylic acid] here?
**A.** The IC50 was 7.15 nM.

**Q.** For Cc1cc(Nc2cncc(C(F)(F)F)n2)cc(-c2cnc(C3(O)CCC(C(=O)O)C(C)(C)C3)s2)c1 (single isomer, unassigned) [Example 2.4, (1S,4R or 1R,4S)-4-hydroxy-2,2-dimethyl-4-[5-(3-methyl-5-{[6-(trifluoromethyl)pyrazin-2-yl]amino}phenyl)-1,3-thiazol-2-yl]cyclohexane-carboxylic acid], which IC50 is on record?
**A.** Its IC50 is 4200 nM.

**Q.** How did the IC50 turn out when Cc1cc(Nc2cc(C)ncn2)nc(-c2cnc(C3(O)CCCc4cc(C(=O)O)ccc43)s2)c1 (single isomer, unassigned) [Example 2.9, (R or S)-5-hydroxy-5-(5-{4-methyl-6-[(6-methylpyrimidin-4-yl)amino]pyridin-2-yl}-1,3-thiazol-2-yl)-5,6,7,8-tetrahydronaphthalene-2-carboxlic acid] was run?
**A.** The IC50 was 0.212 nM.

**Q.** With Cc1cc(Nc2nccc(C)n2)cc(-c2cnc([C@@]3(O)CC[C@H](C(=O)O)C(C)(C)C3)s2)n1 (single isomer, unassigned) [Example 4.3, (1S,4R or 1R, 4S)-4-hydroxy-2,2-dimethyl-4-(5-{6-methyl-4-[(4-methylpyrimidin-2-yl)amino]pyridin-2-yl}-1,3-thiazol-2-yl)cyclohexanecarboxylic acid] as the molecule, how does the IC50 read?
**A.** Its IC50 is 22.1 nM.

**Q.** With Cc1cnnc(Nc2cc(C)cc(-c3cnc([C@@]4(O)CC[C@H](C(=O)O)C(C)(C)C4)s3)n2)c1 (single isomer, unassigned) [Example 3.3, (1S,4R or 1R,4S)-4-hydroxy-2,2-dimethyl-4-(5-{4-methyl-6-[(5-methylpyridazin-3-yl)amino]pyridin-2-yl}-1,3-thiazol-2-yl)cyclohexanecarboxylic acid] as the molecule, how does the IC50 read?
**A.** Its IC50 is 182 nM.

**Q.** Which IC50 does the source give for CCc1cc(Nc2cc(C)cc(-c3cnc(C4(O)CCCc5cc(C(=O)O)ccc54)s3)n2)ncn1 (single isomer, unassigned) [Example 2.11, (R or S)-5-(5-{6-[(6-ethylpyrimidin-4-yl)amino]-4-methylpyridin-2-yl}-1,3-thiazol-2-yl)-5-hydroxy-5,6,7,8-tetrahydronaphthalene-2-carboxylic acid] here?
**A.** The IC50 was 0.0649 nM.

**Q.** For CC(O)(c1ncc(-c2cncc(Nc3cc(C(F)(F)F)ccn3)n2)s1)[C@H]1CC[C@H](C(=O)O)CC1 (single isomer, unassigned) [Example 4.12, (trans)-4-((R or S)-1-hydroxy-1-[5-(6-{[4-(trifluoromethyl)pyridin-2-yl]amino}pyrazin-2-yl)-1,3-thiazol-2-yl]ethyl}cyclohexane carboxylic acid], which IC50 is on record?
**A.** Its IC50 is 1.82 nM.

**Q.** For CCOc1cc(Nc2nccc(C(F)(F)F)n2)cc(-c2cnc(C3(O)CCC3)s2)n1 [Example 4.1, 1-(5-(6-Ethoxy-4-((4-(trifluoromethyl)pyrimidin-2-yl)amino)pyridin-2-yl)thiazol-2-yl)cyclobutanol], which IC50 is on record?
**A.** The IC50 was 111 nM.

**Q.** Cc1cc(Nc2nccc(C(F)F)n2)cc(-c2cnc(C(C)(O)C3CCC(C(=O)O)CC3)s2)n1 (single isomer, unassigned) [Example 4.17, (trans)-4-((R or S)-{1-[5-(4-{[4-(difluoromethyl)pyrimidin-2-yl]amino}-6-methylpyridin-2-yl)-1,3-thiazol-2-yl]-1-hydroxyethyl}cyclo-hexanecarboxylic acid] was tested. Which IC50 did it give?
**A.** The IC50 was 1.37 nM.

**Q.** Cc1cc(Nc2nccc(C(F)(F)F)n2)cc(-c2cnc(C(C)(O)c3ccc(C(=O)O)cc3)s2)n1 (single isomer, unassigned) [Example 1.21, (R or S)-4-(1-hydroxy-1-(5-(6-methyl-4-((4-(trifluoromethyl)pyrimidin-2-yl)amino)pyridin-2-yl)thiazol-2-yl)ethyl)benzoic acid] was tested. Which IC50 did it give?
**A.** Its IC50 is 5.91 nM.

**Q.** With COc1cc(Nc2cc(C)cc(-c3cnc([C@@]4(O)CC[C@H](C(N)=O)C(C)(C)C4)s3)n2)ncn1 (single isomer, unassigned) [Example 3.1, (1S,4R or 1R,4S)-4-Hydroxy-4-(5-{6-[(6-methoxypyrimidin-4-yl)amino]-4-methylpyridin-2-yl}-1,3-thiazol-2-yl)-2,2-dimethylcyclohexanecarboxamide] as the molecule, how does the IC50 read?
**A.** Its IC50 is 2.5 nM.

**Q.** Which IC50 does the source give for Cc1ccnc(Nc2ccc(-c3cnc(C4(O)CCC(C(=O)O)CC4)s3)cc2C)c1 (stereo not drawn) [Example 4.13, cis-4-hydroxy-4-(5-{3-methyl-4-[(4-methylpyridin-2-yl)amino]phenyl}-1,3-thiazol-2-yl)cyclohexanecarboxylic acid] here?
**A.** Its IC50 is 43.6 nM.
